EP4685144A1, “NON-FLUORESCENT COMPOUND AND USES THEREOF” (SFC Co., Ltd., priority 2023, dated 2024)

Assays:
[1] = commercially available quencher; cited from earlier work
[2] = Photophysical properties of the non-fluorescent compounds in DMSO solvent; type: physicochemical; set-up: εmax: unit not given here; conditions: for Quantum Yield(Φ) / εmax / λabs: DMSO solvent
From the text: The photophysical properties measured in DMSO solvent for the non-fluorescent compounds synthesized according to the above synthesis examples are shown in Table 1 below.

SMILES: CCN(CC)c1ccc2nc3ccc(/N=N/c4ccc(N(C)CCCC(=O)O)cc4)cc3[n+](-c3ccccc3)c2c1 [BHQ-3]
- absorbs light in the range [1]: 650-700 nm

SMILES: C[n+]1c(C=CC=c2c3cccc4cccc(c43)n2CCCCCC(=O)O)sc2ccccc21 [Dye 2]
- maximum absorption wavelength [2]: above 650 nm
- Quantum Yield(Φ) [2]: 0.006
- εmax [2]: 28,000
- λabs [2]: 664 nm

SMILES: Cn1c(=CC=CC2=[N+](CCCCCC(=O)O)c3ccccc3C2(C)C)c2cccc3cccc1c32 [Dye 6]
- Quantum Yield(Φ) [2]: 0.005
- εmax [2]: 75,000
- λabs [2]: 672 nm

SMILES: Cn1c(=CC=CC2=Nc3c(ccc[n+]3CCCCCC(=O)O)C2(C)C)c2cccc3cccc1c32 [Dye 12]
- Quantum Yield(Φ) [2]: 0.002
- εmax [2]: 53,000
- λabs [2]: 676 nm

SMILES: Cn1c(=CC=CC2=[N+](CCCCCC(=O)O)c3c(ccc4ccccc34)C2(C)C)c2cccc3cccc1c32 [Dye 16]
- maximum absorption wavelength [2]: above 650 nm
- Quantum Yield(Φ) [2]: 0.001
- εmax [2]: 68,000
- λabs [2]: 692 nm

SMILES: CCn1c(=CC=CC2=[N+](CCCC(=O)O)c3c(ccc4c3c3ccccc3n4C)C2(C)C)c2cccc3cccc1c32 [Dye 17]
- maximum absorption wavelength [2]: above 650 nm
- Quantum Yield(Φ) [2]: 0.002
- εmax [2]: 37,000
- λabs [2]: 672 nm

SMILES: CCn1c(=CC=CC=CC2=[N+](CCCCCC(=O)O)c3cc4c(cc3C2(C)C)-c2ccccc2C4(C)C)c2cccc3cccc1c32 [Dye 18]
- Quantum Yield(Φ) [2]: 0.005
- εmax [2]: 74,000
- λabs [2]: 680 nm

SMILES: Cn1c(=CC=CC2=[N+](CCCCCC(=O)O)c3ccc4sc5ccccc5c4c3C2(C)C)c2cccc3cccc1c32 [Dye 48]
- Quantum Yield(Φ) [2]: 0.001
- εmax [2]: 65,000
- λabs [2]: 690 nm

SMILES: C[n+]1c(C=CC=c2c3cccc4cccc(c43)n2CCCCCC(=O)O)oc2c3ccccc3ccc21 [Dye 60]
- Quantum Yield(Φ) [2]: 0.007
- εmax [2]: 42,000
- λabs [2]: 600 nm

SMILES: CC[n+]1c(C=CC=c2c3cccc4cccc(c43)n2CCCCCC(=O)O)sc2ccc3ccccc3c21 [Dye 61]
- Quantum Yield(Φ) [2]: 0.002
- εmax [2]: 24,000
- λabs [2]: 630 nm
